Laboratory results from PMC3057995, “Potent Anti-Tumor Effect Generated by a Novel Human Papillomavirus (HPV) Antagonist Peptide Reactivating the pRb/E2F Pathway” (PLoS ONE, 2011).

Columns and labels:
SiHa cells = test: qRT-PCR, SiHa; format: cell-based; conditions: 80 µM
Experimental: (§1) Total RNA was extracted from the cultured cells using TRIzol reagent (Invitrogen, Carlsbad, CA,USA) according to the manufacturer's instructions. qRT-PCR was used to confirm the expression levels of mRNAs. Reverse transcription and qPCR were performed according to the protocol of Reverse Transcriptase System™ and SYBR® premix Ex Taq™ (Perfect Real Time) (TaKaRa, Dalian, P.R. China) on the ABI 7300 Real Time PCR System (Applied Biosystems, Foster City, CA, USA) supplied with analytical software. β-actin mRNA levels were used for normalization. Each sample was determined in triplicate. The results represent means ± SE from three experiment runs.

[1] = test system: CNE nasopharyngeal carcinoma cells; test: MTT cell viability assay, CNE; format: cell-based; conditions: HPV-negative, data not shown
Excerpt: (§2) HPV16-positive SiHa and CaSki cervical carcinoma cells were supplied by China Center for Type Culture Collection (CCTCC). The following cell lines used in this project were from our laboratory: HPV18-positive HeLa cervical carcinoma cells, CNE nasopharyngeal carcinoma cells, HaCat human keratinocyte cells, COS7 (African green monkey SV40-transformed kidney fibroblast cell line), 293T (human kidney epithelial cells), and NIH/3T3 mouse embryonic fibroblast cells. All cells were maintained in a humidified atmosphere of 5% CO2, Dulbecco's modified Eagle's medium (DMEM, pH 7.2), supplemented with 10% fetal calf serum (FCS).
(§3) Cell viability was determined with an MTT assay. Briefly, the cells were seeded into 96-well plates at a density of 4–5×10^3 cells/well. The cells were allowed to recover for 24 h before the medium was replaced with DMEM supplemented with peptides at different concentrations. The solvent of the peptides was set as the control. The peptide-supplemented medium was replaced daily and the respective concentrations were maintained. The cells were subjected to an MTT cell proliferation assay at different time points. The plates were incubated at 37°C for 3 h with the addition of 20 µl/well MTT (5 mg/ml). Untransformed MTT in the solution was removed by aspiration. […] The optical density of the formazan solutions was measured by microplate reader at 540 nm.

cyclins A, D1, and E1 = test: qRT-PCR of tumor tissues; format: in vivo, mouse (Balb/C-nu/nu)
Experimental: as §1

[2] = test system: NIH/3T3 embryonic fibroblast cells; test: MTT cell viability assay, NIH 3T3; format: cell-based, mouse; conditions: NIH 3T3, HPV-negative; data not shown
Excerpt: as §2, §3

CaSki cells [3] = test: qRT-PCR, CaSki; format: cell-based; conditions: 80 µM
Experimental: as §1

HPV16 E7 protein = conditions: peptides 0.08 µM to 800 µM vs HPV16E7 mAb; mean ± SE, three independent experiments
Experimental: HPV16E7 mAb alone, incubated with the coated E7 protein, gave the benchmark absorption value. Absorbance values and inhibitory ratio were collected and calculated as outlined in Materials and Methods.
The specificity and affinity of the positive clones and synthetic peptides were determined by competitive ELISA. 400 ng/well HPV16 E7 protein was coated overnight in microtiter wells at 4°C. The positive clones or peptides at different concentrations mixed with HPV16E7 mAb were incubated with the coated E7 protein in microtiter wells for 3 h. The mixture at the same concentration of the library phage and HPV16E7 mAb was set as negative control. […] HPV16E7 mAb alone at the same concentration, incubated with the coated E7 protein, gave benchmark absorption. The inhibitory ratio was calculated by the following formula: Inhibitory ratio = 100%−(A450 of mixture well/A450 of mAb alone well)×100%.

HPV16E7/pRb interaction = test: His-pull down of pRb by His-HPV16E7; format: binding; conditions: 293T cell lysate (300 µg total proteins), 10 µl 8 mmol/L Pep-7, overnight 4°C
Experimental: For pull-down analysis, the purified His-HPV E7 protein (200 µg/ml×50 µl) was preincubated with 100 µl His-band Resin (Amersham Biosciences, Little Chalfont, UK) for 4 h at 4°C. The beads were then washed four times with lysis buffer and divided into two equal portions. […] The mixtures were incubated overnight at 4°C under continuous agitation. Beads were subsequently washed four times with a lysis buffer. Bound proteins were eluted by boiling in Laemmli sample buffer and analyzed by Western blot.

[4] = test system: cyclin A, E1 and D1 promoters containing E2F binding sites; test: Luciferase reporter assay, SiHa; format: cell-based; conditions: 80 µM, 24 h
Experimental: SiHa cells were co-transfected with E2F-responsive luciferase reporter plasmids and siRNA of Rb, p130 and p107, respectively.
The cells were seeded in 12-well plate at a density of 3×10^5 cells/well. The following day, cells were transfected with SiRNA and luciferase reporter plasmids or siRNA alone, respectively, using LipofectAMINE 2000 as described in the manufacturer's protocol (Invitrogen, Carlsbad, CA, USA).
(§4) The reporter assays were performed using Bright-Glo™ Luciferase Assay System (Promega, Madison, WI, USA) according to the manufacturer's instructions. Briefly, cells were plated in 12-well plates at a density of 1.5×10^5 cells/well. The following day, cells were transfected with reporter constructs. […] Thereafter, cell lysates were collected for reporter assays. The luciferase reporter activity of each sample was normalized against the corresponding protein content prior to calculation of the fold induction value relative to the controls. Each sample was determined in triplicate. The results represent means ± SE from three experiment runs.

CaSki cells [5] = test: MTT cell viability assay, CaSki; format: cell-based; conditions: HPV16-positive, medium replaced daily, A540, mean ± SE, at least two independent runs in sextuplicate
Experimental: Cell viability was determined with an MTT assay. Briefly, the cells were seeded into 96-well plates at a density of 4–5×10^3 cells/well. The cells were allowed to recover for 24 h before the medium was replaced with DMEM supplemented with peptides at different concentrations. The solvent of the peptides was set as the control. The peptide-supplemented medium was replaced daily and the respective concentrations were maintained. The cells were subjected to an MTT cell proliferation assay at different time points. The plates were incubated at 37°C for 3 h with the addition of 20 µl/well MTT (5 mg/ml). Untransformed MTT in the solution was removed by aspiration. The formazan product was dissolved in DMSO, and plates were shaken vigorously at room temperature for 10–15 min to ensure complete solubilization. The optical density of the formazan solutions was measured by microplate reader at 540 nm.

[6] = test system: cyclin A, E1 and D1 promoters containing E2F binding sites; test: Luciferase reporter assay, CaSki; format: cell-based; conditions: 80 µM, 24 h, means ± SE, three experiments
Experimental: as §4

CaSki cells [7] = test: Western blot, CaSki; format: cell-based; conditions: 80 µM, 48 h
Experimental: Western blotting was carried out as described previously, [50]. […] After another 48 h of treatment, the cells were lysed in lysis buffer (Beyotime Institute of Biotechnology, Jiangshu, China) containing PMSF (Sigma Chemical Co., St. Louis, MI, USA) for 30 min at 4°C. The lysate was then centrifuged for 20 min at 13,000 rpm and 4°C. The proteins were then separated through SDS-PAGE and transferred onto the PVDF membrane (Immobion®-P Transfer Membrane, Millipore Corp., Billerica, MA, USA). Membranes were blocked in a Tris-buffered saline with 0.1% Tween-20 (TBS-T) solution with 5% nonfat dry milk and incubated overnight with primary antibodies at 4°C. The immunoreactive signals were detected by HRP-conjugated secondary antibodies (KPL, Gaithersburg, MD, USA) followed by SuperSignal® West Pico Chemiluminescent Substrate (Thermo Scientific, Milford, MA, USA.). Anti-β-actin antibodies were used to control protein loading. For the in vivo studies, tumors were harvested, and the cell lysates were prepared and transferred to a clean Eppendorf tube and centrifuged for 30 min at 14,000 rpm. The supernate was probed by western blotting, as described above.

pRb = pRb half-life measurement (cycloheximide, Western blot); format: cell-based; conditions: SiHa, 80 µM Pep-7 24 h, then 50 µg/ml cycloheximide 0 to 12 h; three experiments
Experimental: Measurements of pRb half-life were carried out.
The cells were then treated with 50 µg/ml cycloheximide for 0 to 12 h. The cell lysates collected at different time points were subjected to Western blotting assay as above. Band intensity was used to determine the proteins half-life.

Sequence: SACPKGLDWCGG (C&C bridged by disulfide bonds) (disulfide) [Pep-7]
- cyclins A, D1 and E1 RNA expression (SiHa cells): significantly reduced
- pRb and HPV16E7 RNA levels (SiHa cells): not affected
- cell proliferation (MTT) [1]: negligible effect
- cyclins A, D1, and E1 RNA levels in tumor tissue (cyclins A, D1, and E1): reduced
- cell proliferation (MTT) [2]: negligible effect
- cyclins A, D1 and E1 RNA expression (CaSki cells [3]): significantly reduced
- pRb and HPV16E7 RNA levels (CaSki cells [3]): not affected
- binding to HPV16 E7 (HPV16 E7 protein): bound to HPV16 E7 with high affinity compared with the control peptide N-pep
- pull-down of pRb by His-HPV16E7 (HPV16E7/pRb interaction): could not pull down pRb from 293T cell lysates with Pep-7 present
- activities of cyclin A, E1 and D1 promoters ([4]; means ± SE, three experiments): remarkable down-regulation
- influence of p130 or p107 knock-down on Pep-7 suppression of promoters ([4]; p130 or p107 siRNA): did not affect the influence of Pep-7 on these promoters
- influence of pRb knock-down on Pep-7 suppression of promoters ([4]; pRb siRNA): abrogated the suppression of cyclin A, E1 and D1 promoter activities by Pep-7
- cell proliferation (MTT) (CaSki cells [5]): repressed significantly by Pep-7 in a dose- and time-dependent manner
- activities of cyclin A, E1 and D1 promoters [6]: remarkable down-regulation
- HPV16E7 protein level (CaSki cells [7]): reduced
- cyclins A, D1 and E1 protein expression (CaSki cells [7]): significantly reduced
- pRb protein level (CaSki cells [7]): increased
- pRb half-life (pRb): significantly expanded
